From publication PMC4471147, “The Effect of Mutations on Drug Sensitivity and Kinase Activity of Fibroblast Growth Factor Receptors: A Combined Experimental and Theoretical Study” (eBioMedicine, 2015)
Where “and” joins values, the source holds several entries; their conditions need not be identical. Equal entries are not always repeated.

What was measured:
[1] = test system: mutations of the gatekeeper residue in all FGFR receptors; set-up: method as in Tan et al., 2014; conditions: ref Tan et al., 2014; cited from earlier work
[2] = test system: KIT; conditions: ref Dieci et al., 2013; cited from earlier work
[3] = test system: control (vector only) NIH 3T3 cells; assay: Cell viability assay, control NIH 3T3 cells; type: cell-based; conditions: for effect on cell viability: concentration range up to 1 μM, 72 h
Method: See also Supplemental Table S2. […] See also Supplemental Table S1. C. […] Cell viability was assessed at 72 h. […]
from 3 independent assays. […]
the CellTiter-Blue Cell Viability Assay (Promega). Cells were plated in triplicate in a 96- […]
medium with inhibitor at the indicated concentration. After 3 days with the inhibitor, 20 µl […]
(Berthold technologies). Background signal was removed by subtracting the fluorescence from cell-free wells. Results are from 3 independent assays.

[4] = biological target: T1, FGFR1 V561M kinase domain (Homo sapiens, UniProt P11362, V561M); assay: Isothermal titration calorimetry, FGFR1 V561M
[5] = biological target: T1, FGFR1 V561M kinase domain; assay: ADP-Glo kinase assay, FGFR1 V561M gatekeeper variant; type: biochemical; set-up: All kinase domain constructs were cloned into pOPINS (OPPF, Oxford, UK) or pJ821; purification tag (captured on HisTrap, removed with Ulp1 protease) (cleaved yes); made in house; host or cells: E. coli C41 (DE3) co-expressing lambda phosphatase and human CDC37 (phospho form: without the accessory plasmid); conditions: for change of inhibitor sensitivity by V561M: V561M compared to wild type, in vitro kinase assay
Method: The ADP-Glo (Promega) methodology was used for all kinase assays following manufacturers instructions. […] In various experiments the concentrations of these components were varied and this is stated in the text or figure legends. In order to calculate valid inhibition constants (Ki), a number of kinetic parameters needed to be ascertained, in particular, the Km of the kinases for ATP. A thorough Michaelis–Menten kinetic analysis was performed ensuring that all relevant parameters were in the linear range and that the appropriate concentrations of ATP, substrate and kinase were adhered to. All data were processed using Graphpad Prism and parameters presented in Supplemental Tables.
Fig. 1 Kinase activity and inhibition of FGFR1 variants. A. Amino acid alignment of part of the hinge region of the FGFR family and a number of other tyrosine kinases with reported gatekeeper mutations. The gatekeeper residue in each case is numbered and bordered in dark grey. The FGFR 1 to 3 tyrosine that is a cysteine in FGFR4 is highlighted in light grey. B. Histogram showing the inhibition constants (Ki) for four selected compounds upon FGFR1 kinase domain protein, wild type and the indicated mutants. The data were generated from enzyme kinetic analyses using various concentrations of inhibitors and fitting using the Morrison equation within Graphpad Prism. Each data point was repeated in duplicate and the standard error of the mean is presented on each bar. C. Left panel: comparison of the activity of FGFR1 apo (WT-apo) and phosphorylated (WT-2P) kinase domain protein produced using the ADP-Glo Assay. Each data point was produced in triplicate and the standard errors are indicated. Right panel: comparison of the enzyme efficiency (kcat/Km) of FGFR1 apo and phosphorylated protein. Parameters were generated through Michaelis–Menten kinetic experiments and analysed using Graphpad Prism software. […] The data in B–D are representative for 3–4 independent experiments. See also Supplemental Tables S1 and S2.

[6] = biological target: FGFR1 WT kinase domain (Homo sapiens, UniProt P11362); assay: Isothermal titration calorimetry, FGFR1 WT; conditions: ITC, 20 °C
[7] = biological target: FGFR3 WT kinase domain (Homo sapiens, UniProt P22607); assay: Isothermal titration calorimetry, FGFR3 WT; conditions: ITC, 20 °C
[8] = test system: NIH 3T3 cells expressing FGFR3 WT; assay: Cell viability assay, FGFR3 WT NIH 3T3 cells; type: cell-based; conditions: increasing concentrations of inhibitor
Method: Cells were seeded in triplicate at 1x10^5 cells per well in 6-well plates, fed every 2-3 days and trypsinised and counted after 7 days, using a coulter counter (Beckman). Results are from 3 independent assays.
(§1) The amount of viable cells following culture with kinase inhibitors was measured using the CellTiter-Blue Cell Viability Assay (Promega). Cells were plated in triplicate in a 96-well plate at 2x10^3 cells/well and left to attach overnight before the addition of fresh medium with inhibitor at the indicated concentration. After 3 days with the inhibitor, 20 µl of cell titer blue reagent was added for 2 hours, and fluorescence measured with excitation at 540 nm and emission at 590 nm, using a Mithras LB940 plate reader (Berthold technologies). Background signal was removed by subtracting the fluorescence from cell-free wells. Results are from 3 independent assays.

[9] = biological target: FGFR1 Y563C kinase domain (Homo sapiens, UniProt P11362, Y563C); assay: Isothermal titration calorimetry, FGFR1 Y563C
[10] = test system: NIH 3T3 cells expressing FGFR3-TACC3 fusion protein; assay: Cell viability assay, FGFR3-TACC3 NIH 3T3 cells; type: cell-based; conditions: increasing concentrations, 72 h
Description: (§2) Data were fit with a one-phase association model (for presentation purposes only) using Graphpad prism. Each data point was produced in triplicate and the standard errors are indicated. […] Parameters were generated through Michaelis–Menten kinetic experiments and analysed using Graphpad Prism software. See also Supplemental Table S2. […] The data were generated from enzyme kinetic analyses using various concentrations of inhibitors and fitting using the Morrison equation within Graphpad Prism. Each data point was repeated in duplicate and the standard error of the mean is presented on each bar. See also Supplemental Table S1. C. […] Bottom panels show morphology of NIH3T3 cells expressing the indicated constructs. […] Cell viability was assessed at 72 h. […]
(§3) Cells were seeded in triplicate at 1x10^5 cells per well in 6-well plates, fed every 2-3 days and trypsinised and counted after 7 days, using a coulter counter (Beckman). […]
as §1, with “Cells were plated in triplicate in a 96-well plate at 2x10^3 cells/well and left to attach overnight before the addition of fresh medium with inhibitor at the indicated concentration.” left out, “Results are from 3 independent assays.” left out

[11] = test system: NIH 3T3 cell line expressing FGFR3-TACC3 V555M; conditions: increasing concentrations, 72 h
Description: as §2, §3
as §1, with “Cells were plated in triplicate in a 96-well plate at 2x10^3 cells/well and left to attach overnight before the addition of fresh medium with inhibitor at the indicated concentration.” left out, “Results are from 3 independent assays.” left out

[12] = test system: KMS-11 cells harbouring FGFR3 Y373C, V555M; set-up: method as in Chell et al., 2013; conditions: 1 μM; ref Chell et al., 2013; cited from earlier work
[13] = biological target: vascular endothelial growth factor receptor (VEGFR); conditions: cited from earlier work
[14] = test system: SYK; set-up: method as in Dieci et al., 2013; conditions: ref Dieci et al., 2013; cited from earlier work
[15] = test system: LYN; set-up: method as in Dieci et al., 2013; conditions: ref Dieci et al., 2013; cited from earlier work
[16] = test system: FGFR; conditions: ref Dieci et al., 2013; cited from earlier work
[17] = test system: PDGFα; set-up: method as in Dieci et al., 2013; conditions: ref Dieci et al., 2013; cited from earlier work

Molecule: C=CC(=O)Nc1ccc(CN2C(=O)N(c3cc(OC)cc(OC)c3)Cc3cnc(Nc4ccc(N5CCN(C)CC5)cc4)nc32)cc1 [FIIN2]
- efficacy towards gatekeeper mutations [1]: proved effective

Molecule: CN1CCN(c2ccc3nc(-c4c(N)c5c(F)cccc5[nH]c4=O)[nH]c3c2)CC1 [TKI258]
- effect on cell viability [3]: very little or no effect

Molecule: C=CC(=O)Nc1ccc(CN(C(=O)Nc2c(Cl)c(OC)cc(OC)c2Cl)c2cc(Nc3ccc(N4CCN(C)CC4)cc3)ncn2)cc1 [FIIN3]
- efficacy towards gatekeeper mutations [1]: proved effective

Molecule: CCN(CC)CCCCNc1ncc2cc(-c3cc(OC)cc(OC)c3)c(NC(=O)NC(C)(C)C)nc2n1 [PD173074]
- -TΔS ([4]; ITC, 20 °C): -5.3 ± 0.14 kcal/mol
- n (number of binding sites) ([4]; ITC, 20 °C): 0.80 ± 0.006
- ΔG ([4]; ITC, 20 °C): -8.7 ± 0.10 kcal/mol
- ΔH ([4]; ITC, 20 °C): -3.4 ± 0.04 kcal/mol
- ΔΔGexp (binding free energy difference, mutant − WT) ([4]; V561M versus WT, from ITC, standard deviation in parentheses): 2.73 ± 0.18 kcal/mol and 2.73 (0.18) kcal/mol
- change of inhibitor sensitivity by V561M [5]: clear reduction of sensitivity
- reduction of potency on the gatekeeper variant ([5]; V561M versus WT FGFR1): up to 225 fold
- effect on cell viability [3]: very little or no effect
- -TΔS [6]: -3.7 ± 0.1 kcal/mol
- n (number of binding sites) [6]: 0.91 ± 0.0007
- ΔG [6]: -11.4 ± 0.09 kcal/mol
- ΔH [6]: -7.7 ± 0.01 kcal/mol
- -TΔS [7]: -0.1 ± 0.32 kcal/mol
- n (number of binding sites) [7]: 0.89 ± 0.002
- ΔG [7]: -11.5 ± 0.25 kcal/mol
- ΔH [7]: -11.4 ± 0.07 kcal/mol
- effect on cell viability [8]: unaffected
- -TΔS ([9]; ITC, 20 °C): -4.1 ± 0.14 kcal/mol
- n (number of binding sites) ([9]; ITC, 20 °C): 0.66 ± 0.002
- ΔG ([9]; ITC, 20 °C): -10.5 ± 0.11 kcal/mol
- ΔH ([9]; ITC, 20 °C): -6.4 ± 0.03 kcal/mol
- ΔΔGexp (binding free energy difference, mutant − WT) ([9]; Y563C versus WT, from ITC, uncertainty in parentheses): 0.97 kcal/mol
- effect on cell viability [10]: selectively inhibited

Molecule: AZD4547
- change of inhibitor sensitivity by V561M [5]: clear reduction of sensitivity
- effect on cell viability [3]: very little or no effect
- effect on cell viability [11]: completely ineffective
- effect on cells [12]: only marginally affected
- effect on cell viability [10]: most effective

Molecule: Cc1ccc(C(=O)Nc2ccc(CN3CCN(C)CC3)c(C(F)(F)F)c2)cc1C#Cc1cnc2cccnn12 [AP24534]
- IC50 [13]: 1 to 2.5 nM
- IC50 [14]: 0.2 to 0.4 nM
- change of inhibitor sensitivity by V561M [5]: marginal effect on sensitivity
- inhibition at 1 µM ([3]; Mus musculus, NIH3T3, read-out: inhibitory effects under control condition): > 60%
- IC50 [16]: 1 to 2.5 nM
- IC50 [17]: 1 to 2.5 nM
